How the values were obtained:
[1] = biological target: T1, Oxysterols receptor LXR-beta (Homo sapiens, UniProt P55055); experiment: Activity at LXRbeta (unknown origin)
T1 sequence (P55055 whole entry): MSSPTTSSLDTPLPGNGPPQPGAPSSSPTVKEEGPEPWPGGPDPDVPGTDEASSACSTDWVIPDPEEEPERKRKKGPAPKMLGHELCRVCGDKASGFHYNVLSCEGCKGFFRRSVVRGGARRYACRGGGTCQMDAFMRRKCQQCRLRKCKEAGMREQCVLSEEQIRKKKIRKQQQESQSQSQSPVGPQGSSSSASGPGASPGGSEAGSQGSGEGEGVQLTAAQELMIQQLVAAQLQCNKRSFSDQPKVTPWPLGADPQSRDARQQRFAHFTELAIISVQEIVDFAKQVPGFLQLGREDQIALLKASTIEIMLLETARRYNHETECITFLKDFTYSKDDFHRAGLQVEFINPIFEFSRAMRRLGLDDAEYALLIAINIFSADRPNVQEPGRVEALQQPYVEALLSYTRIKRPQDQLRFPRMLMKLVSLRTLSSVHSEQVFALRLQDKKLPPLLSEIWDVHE

Mus musculus [2] = experiment: Suppression of IL-22 RNA expression in skin region of mouse model of IL-23 induced acanthosis model of psoriasis at 3 to 30 mg/kg, po BID for 10 days measured every other day; assay type: functional
[3] = biological target: T1, Oxysterols receptor LXR-beta; experiment: Agonist activity at LXRbeta (unknown origin) by Gal4-Luc reporter gene assay
Mus musculus [4] = experiment: Suppression of IL-17F production in mouse stimulated at time -24 hrs with IL-2 and at time 0, 7, and 24 hrs with IL-2/IL-23 mixture dosed with compound at 0 and 24 hrs and measured at 30 hrs
[5] = Volume of distribution at steady state in mouse at 2 mg/kg, iv; assay type: ADME, organism-based; conditions: in vivo, read-out: Vdss
[6] = Cmax in Balb/c mouse at 10 mg/kg, po; assay type: ADME, organism-based; design: dose 10 mg/kg, route oral; conditions: in vivo
Mus musculus [7] = experiment: Suppression of IL-17F RNA expression in skin region of mouse model of IL-23 induced acanthosis model of psoriasis at 3 mg/kg, po BID for 10 days measured every other day relative to control; assay type: functional; conditions: 240 h
[8] = Half life in dog at 1 mg/kg, iv; assay type: ADME, organism-based, Canis lupus familiaris; conditions: in vivo
Mus musculus [9] = experiment: Suppression of ear thickness in mouse model of IL-23 induced acanthosis model of psoriasis at 10 mg/kg, po BID for 10 days measured every other day relative to anti-IL-23 positive control; assay type: functional
[10] = biological target: T2, Nuclear receptor ROR-gamma (Mus musculus, UniProt P51450); experiment: Inverse agonist activity at RORgammat in CD3/CD28/IL-1/IL-23-stimulated C57/B6 mouse whole blood assessed as reduction in IL17A production incubated for 1 hr before stimulation with CD3/CD28/IL-1/IL-23 for 24 hrs by AlphaLISA method; assay type: tissue-based
T2 sequence (P51450 whole entry): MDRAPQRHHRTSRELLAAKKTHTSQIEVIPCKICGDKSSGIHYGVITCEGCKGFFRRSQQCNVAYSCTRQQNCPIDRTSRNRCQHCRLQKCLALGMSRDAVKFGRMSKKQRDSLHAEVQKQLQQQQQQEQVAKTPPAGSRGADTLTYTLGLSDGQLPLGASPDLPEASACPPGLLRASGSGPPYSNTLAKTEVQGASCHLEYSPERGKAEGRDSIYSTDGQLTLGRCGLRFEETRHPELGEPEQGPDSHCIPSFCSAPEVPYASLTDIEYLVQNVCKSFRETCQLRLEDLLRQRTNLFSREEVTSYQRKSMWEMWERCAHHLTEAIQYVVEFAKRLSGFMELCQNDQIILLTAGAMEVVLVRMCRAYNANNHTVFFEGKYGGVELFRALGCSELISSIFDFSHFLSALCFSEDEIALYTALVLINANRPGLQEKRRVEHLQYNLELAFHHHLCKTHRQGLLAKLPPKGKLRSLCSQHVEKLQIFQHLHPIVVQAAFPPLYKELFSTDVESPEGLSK

Cytochrome P450 2C8 = biological target: T3, Cytochrome P450 2C8 (Homo sapiens, UniProt P10632); experiment: Inhibition of recombinant CYP2C8 (unknown origin); assay type: ADME
T3 sequence (P10632 whole entry): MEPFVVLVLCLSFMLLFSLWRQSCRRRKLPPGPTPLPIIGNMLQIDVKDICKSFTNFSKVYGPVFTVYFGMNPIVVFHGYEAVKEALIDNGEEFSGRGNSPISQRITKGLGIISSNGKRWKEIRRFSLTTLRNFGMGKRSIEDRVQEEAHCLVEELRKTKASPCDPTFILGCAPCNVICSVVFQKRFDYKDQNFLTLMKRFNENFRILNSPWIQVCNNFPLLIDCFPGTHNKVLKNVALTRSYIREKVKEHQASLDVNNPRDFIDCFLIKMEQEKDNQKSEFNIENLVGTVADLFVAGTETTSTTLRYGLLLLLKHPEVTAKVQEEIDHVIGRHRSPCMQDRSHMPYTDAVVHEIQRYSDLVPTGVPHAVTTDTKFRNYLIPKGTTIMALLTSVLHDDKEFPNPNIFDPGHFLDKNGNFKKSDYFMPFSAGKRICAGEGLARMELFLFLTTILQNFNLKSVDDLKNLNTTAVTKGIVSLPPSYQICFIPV

[11] = Total AUC in rat at 4 mg/kg, po; assay type: ADME, organism-based; design: dose 4 mg/kg, route oral, time AUCmax; conditions: in vivo
[12] = biological target: T4, Nuclear receptor ROR-beta (Homo sapiens, UniProt Q92753); experiment: Activity at RORbeta (unknown origin)
T4 sequence (Q92753 whole entry): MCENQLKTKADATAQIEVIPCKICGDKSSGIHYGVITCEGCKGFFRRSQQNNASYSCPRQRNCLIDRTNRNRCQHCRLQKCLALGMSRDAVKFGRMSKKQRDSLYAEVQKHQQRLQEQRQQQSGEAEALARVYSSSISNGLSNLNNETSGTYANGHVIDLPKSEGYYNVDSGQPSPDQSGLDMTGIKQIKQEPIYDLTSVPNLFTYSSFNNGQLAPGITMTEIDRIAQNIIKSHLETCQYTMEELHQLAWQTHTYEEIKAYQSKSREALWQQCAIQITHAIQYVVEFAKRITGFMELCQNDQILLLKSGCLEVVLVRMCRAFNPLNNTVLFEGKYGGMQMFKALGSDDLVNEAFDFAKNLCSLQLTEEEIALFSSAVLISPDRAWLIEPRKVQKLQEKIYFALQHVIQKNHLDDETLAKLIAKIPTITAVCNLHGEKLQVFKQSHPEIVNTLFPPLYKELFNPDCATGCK

[13] = Volume of distribution at steady state in rat at 2 mg/kg, iv; assay type: ADME, organism-based; conditions: in vivo, read-out: Vdss
[14] = Unbound fraction in mouse serum; assay type: ADME, cell-free
[15] = biological target: T2, Nuclear receptor ROR-gamma; experiment: Inverse agonist activity at RORgammat in mouse cells by mTh17 assay; assay type: cell-based
Mus musculus [16] = experiment: Suppression of IL-22 RNA expression in skin region of mouse model of IL-23 induced acanthosis model of psoriasis at 3 mg/kg, po BID for 10 days measured every other day relative to control; assay type: functional; conditions: 240 h
Mus musculus [17] = experiment: Suppression of IL-17F RNA expression in skin region of mouse model of IL-23 induced acanthosis model of psoriasis at 30 mg/kg, po BID for 10 days measured every other day relative to control; assay type: functional; conditions: 240 h
[18] = Clearance in mouse at 2 mg/kg, iv; assay type: ADME, organism-based; conditions: in vivo

In the case of `O=C(N1CC[C@@]2(S(=O)(=O)c3ccc(F)cc3)c3ccc(C(F)(C(F)(F)F)C(F)(F)F)cc3CC[C@@H]12)C1(O)CCS(=O)(=O)CC1`, the IC50 [1] is reported as > 10000 nM, the Activity (Mus musculus [2]) is reported as “Dose-dependent effect” and the ED50 (Mus musculus [2]; 240 h) is reported as 3 mg/kg. For the same molecule, the EC50 [3] was > 7500 nM, the EC50 (Mus musculus [4]) was 88 nM and the Vd [5] was 2.7 L/kg. For the same molecule, the Cmax [6] was 2900 nM, the inhibition in vivo at 3 mg/kg (Mus musculus [7]) was 41% and the half-life [8] was 87 h. For the same molecule, the Efficacy (Mus musculus [9]) was 88%, the EC50 [10] was 440 nM and the IC50 (Cytochrome P450 2C8) was 15000 nM. The AUC [11] was 17 µM·h, the IC50 [12] was > 10000 nM and the Vd [13] was 2.9 L/kg. The fraction unbound [14] was 0.007, the EC50 [15] was 13 nM and the inhibition in vivo at 3 mg/kg (Mus musculus [16]) was 76%. It also gave an inhibition in vivo at 30 mg/kg (Mus musculus [17]) of 85% and a clearance [18] of 1.9 mL/min/kg.
